Source: patent US20240270762A1, “PENICILLIN-BINDING PROTEIN INHIBITORS” (priority 2021, published 2024)
Converted amounts (≈) assume the structure as drawn.

What was measured:
P. aeruginosa CDC-0095 = test: microbe, parasite or virus in culture; type: cell-based; conditions: Pseudomonas aeruginosa, CDC0095, read-out: Minimum inhibitory concentration, P. aeruginosa CDC-0095
[1] = target: T1, PBP3 from Escherichia coli (K-12) (Escherichia coli, UniProt P0AD68); test: Bocillin-FL fluorescence polarization competition binding, E. coli PBP3
T1 construct: made in house
Method in brief: (§1)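 Purified PBP was preincubated with inhibitor (E. coli PBP3 1.5 μM, 30 min; P. aeruginosa PBP3 0.75 μM, A. baumannii PBP3 0.2 μM and PBP1a 1 μM, 15 min), then Bocillin-FL (0.1 μM; 0.05 μM for PBP1a) added and FP read up to 60 min. EC50 = 50% loss of bound probe.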

N. gonorrhoeae WHO M = test: Liquid broth MIC in Fastidious broth; conditions: Neisseria gonorrhoeae, read-out: Minimum Inhibitory Concentration (MIC), N. gonorrhoeae WHO M
P. aeruginosa CDC-0054 = test: microbe, parasite or virus in culture; type: cell-based; conditions: Pseudomonas aeruginosa, CDC0054, read-out: Minimum inhibitory concentration, P. aeruginosa CDC-0054
A. baumannii CDC-0033 = test: microbe, parasite or virus in culture; type: cell-based; conditions: Acinetobacter baumannii, CDC0033, read-out: MIC, A. baumannii CDC-0033
[2] = test system: N. gonorrhoeae ATCC 49226; test: Liquid broth MIC in Fastidious broth; conditions: Neisseria gonorrhoeae, ATCC49226, read-out: Minimum Inhibitory Concentration (MIC), N. gonorrhoeae ATCC 49226
Procedure: Additional antibacterial testing of the series was performed in 8 reference strains of N. gonorrhoeae (ATCC 49226, FA1090, MS 11, WHO G, WHO L, WHO M, WHO K, WHO X, WHO Z, WHO Q, CDC-0197). ATCC 49226, FA1090, MS11, WHO G, WHO L, and WHO M produce wild type or wild-type like PBP2. WHO K, WHO X, WHO Z, WHO Q, and CDC-0197 produce mosaic PBP2. Liquid broth-based assays were used for antibacterial testing of PBP inhibitors in Neisseria gonorrhoeae. Briefly, cryo-preserved bacterial cultures of clinical strains were streaked for isolation on Chocolate Agar (72 g/L (2×) GC Agar Base (BD #228950) and 2% (2×) Hemoglobin was autoclaved at 121° C. for 20 minutes to sterilize. Once cooled to ˜50° C. the 2×GC Agar Base and 2× Hemoglobin solutions are combined and 1% IsoVitaleX Enrichment (BD #211876) was added to the solution). Strains were incubated at 36° C. and 5% CO2 to allow growth of colonies, 24 hours before inoculum preparation. 2-fold serial dilutions of test compounds were conducted in a 96 well plate with a final volume of 75 μL per well at 2-fold the final desired concentration in Fastidious broth (Remel #R07664). For preparation of assay inoculum, a direct suspension was prepared by aseptically swabbing 10-15 colonies from agar plates into culture tubes containing 2 mL of fresh sterile saline. After the dilution plates were set up, direct suspensions were then diluted in a cuvette containing sterile saline and the optical density was measured at 600 nm. Inocula were diluted such that 75 μL of this culture in Fastidious broth results in a starting bacterial concentration of 5×10^5 CFU/mL when added to the dilution plates. The plates were incubated for ˜24 hours at 36° C. and 5% CO2.

N. gonorrhoeae WHO Z = test: Liquid broth MIC in Fastidious broth; conditions: Neisseria gonorrhoeae, read-out: Minimum Inhibitory Concentration (MIC), N. gonorrhoeae WHO Z
N. gonorrhoeae WHO G = test: Liquid broth MIC in Fastidious broth; conditions: Neisseria gonorrhoeae, read-out: Minimum Inhibitory Concentration (MIC), N. gonorrhoeae WHO G
N. gonorrhoeae WHO K = test: Liquid broth MIC in Fastidious broth; conditions: Neisseria gonorrhoeae, read-out: Minimum Inhibitory Concentration (MIC), N. gonorrhoeae WHO K
Procedure: Liquid broth-based assays were used for antibacterial testing of PBP inhibitors in Neisseria gonorrhoeae. Briefly, cryo-preserved bacterial cultures of clinical strains were streaked for isolation on Chocolate Agar (72 g/L (2×) GC Agar Base (BD #228950) and 2% (2×) Hemoglobin was autoclaved at 121° C. for 20 minutes to sterilize. Once cooled to ˜50° C. the 2×GC Agar Base and 2× Hemoglobin solutions are combined and 1% IsoVitaleX Enrichment (BD #211876) was added to the solution). Strains were incubated at 36° C. and 5% CO2 to allow growth of colonies, 24 hours before inoculum preparation. 2-fold serial dilutions of test compounds were conducted in a 96 well plate with a final volume of 75 μL per well at 2-fold the final desired concentration in Fastidious broth (Remel #R07664). For preparation of assay inoculum, a direct suspension was prepared by aseptically swabbing 10-15 colonies from agar plates into culture tubes containing 2 mL of fresh sterile saline. After the dilution plates were set up, direct suspensions were then diluted in a cuvette containing sterile saline and the optical density was measured at 600 nm. Inocula were diluted such that 75 μL of this culture in Fastidious broth results in a starting bacterial concentration of 5×10^5 CFU/mL when added to the dilution plates. The plates were incubated for ˜24 hours at 36° C. and 5% CO2.

N. gonorrhoeae FA1090 = test: Liquid broth MIC in Fastidious broth; conditions: Neisseria gonorrhoeae, FA1090, read-out: Minimum Inhibitory Concentration (MIC), N. gonorrhoeae FA 1090
N. gonorrhoeae MS11 = test: Liquid broth MIC in Fastidious broth; conditions: Neisseria gonorrhoeae, MS11, read-out: Minimum Inhibitory Concentration (MIC), N. gonorrhoeae MS11
[3] = target: T2, PBP3 from Pseudomonas aeruginosa (PAO1) (Pseudomonas aeruginosa, UniProt G3XD46); test: Bocillin-FL fluorescence polarization competition binding, P. aeruginosa PBP3; conditions: Binding affinity to P. aeruginosa PBP3; fluorescence polarization competition binding assay using Bocillin-FL; read-out: P. aeruginosa PBP3 Potency
T2 construct: made in house
Method in brief: as §1

T1 sequence (P0AD68 1-577): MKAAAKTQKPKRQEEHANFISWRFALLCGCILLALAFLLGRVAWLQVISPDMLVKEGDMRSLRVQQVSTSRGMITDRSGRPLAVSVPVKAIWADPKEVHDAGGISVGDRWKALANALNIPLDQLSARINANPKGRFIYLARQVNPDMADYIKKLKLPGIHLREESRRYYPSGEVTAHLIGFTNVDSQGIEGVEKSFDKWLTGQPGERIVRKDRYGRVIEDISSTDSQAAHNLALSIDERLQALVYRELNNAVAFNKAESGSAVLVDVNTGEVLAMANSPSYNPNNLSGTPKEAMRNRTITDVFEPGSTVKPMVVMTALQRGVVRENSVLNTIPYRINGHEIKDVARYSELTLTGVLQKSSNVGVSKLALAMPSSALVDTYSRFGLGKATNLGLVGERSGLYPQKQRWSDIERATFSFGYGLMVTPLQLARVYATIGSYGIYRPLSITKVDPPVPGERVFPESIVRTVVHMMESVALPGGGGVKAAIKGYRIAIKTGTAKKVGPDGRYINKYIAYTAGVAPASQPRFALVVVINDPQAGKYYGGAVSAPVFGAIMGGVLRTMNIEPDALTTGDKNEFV
T2 sequence (G3XD46 whole entry): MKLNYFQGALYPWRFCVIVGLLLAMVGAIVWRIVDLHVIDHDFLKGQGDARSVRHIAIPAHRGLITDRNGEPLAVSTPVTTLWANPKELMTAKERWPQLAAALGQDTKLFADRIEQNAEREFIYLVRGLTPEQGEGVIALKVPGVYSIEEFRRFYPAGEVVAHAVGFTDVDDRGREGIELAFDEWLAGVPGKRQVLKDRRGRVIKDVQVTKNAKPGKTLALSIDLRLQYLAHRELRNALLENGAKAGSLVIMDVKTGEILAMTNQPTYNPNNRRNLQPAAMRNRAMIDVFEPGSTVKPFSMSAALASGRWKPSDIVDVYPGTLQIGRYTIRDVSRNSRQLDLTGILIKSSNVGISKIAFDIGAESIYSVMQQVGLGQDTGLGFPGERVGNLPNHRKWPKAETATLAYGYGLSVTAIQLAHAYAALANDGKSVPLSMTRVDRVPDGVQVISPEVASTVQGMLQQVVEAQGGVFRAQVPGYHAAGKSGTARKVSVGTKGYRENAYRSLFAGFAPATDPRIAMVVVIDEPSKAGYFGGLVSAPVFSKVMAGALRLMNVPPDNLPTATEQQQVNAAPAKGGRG

Compound | MIC (P. aeruginosa CDC-0095) | EC50 [1] | MIC (N. gonorrhoeae WHO M) | MIC (P. aeruginosa CDC-0054) | MIC (A. baumannii CDC-0033) | MIC [2] | MIC (N. gonorrhoeae WHO Z) | MIC (N. gonorrhoeae WHO G) | MIC (N. gonorrhoeae WHO K) | MIC (N. gonorrhoeae FA1090) | MIC (N. gonorrhoeae MS11) | IC50 [3]
CN(CCN1CCN(C(=O)N[C@@H](C(=O)N[C@H]2Cc3ccc(F)c(C(=O)O)c3OB2O)c2cc(F)c(O)c(O)c2Cl)C(=O)C1=O)Cc1cncc(O)c1 [Example 208, (R)-3-((R)-2-(2-chloro-5-fluoro-3,4-dihydroxyphenyl)-2-(4-(2-(((5-hydroxypyridin-3-yl)methyl)(methyl)amino)ethyl)-2,3-dioxopiperazine-1-carboxamido)acetamido)-7-fluoro-2-hydroxy-3,4-dihydro-2H-benzo[e][1,2]oxaborinine-8-carboxylic acid] | < 1 µg/mL | < 10 µM | 4 to 8 µg/mL (≈ 5.36 to 10.7 µM) | 2 to 4 µg/mL (≈ 2.68 to 5.36 µM) | 2 to 4 µg/mL (≈ 2.68 to 5.36 µM) | 4 to 8 µg/mL (≈ 5.36 to 10.7 µM) | 16 to 32 µg/mL (≈ 21.4 to 42.8 µM) | 4 to 8 µg/mL (≈ 5.36 to 10.7 µM) | 16 to 32 µg/mL (≈ 21.4 to 42.8 µM) | 1 to 2 µg/mL (≈ 1.34 to 2.68 µM) | 4 to 8 µg/mL (≈ 5.36 to 10.7 µM) | 
O=C(O)c1cccc2c1OB(O)[C@@H](NC(=O)[C@@H](NC(=O)c1cnc3n(c1=O)CCS3)c1ccc(P(=O)(O)O)cc1)C2 (single isomer, unassigned) [Example 196] |  | > 250 µM | 16 to 32 µg/mL (≈ 26.7 to 53.3 µM) |  |  | 16 to 32 µg/mL (≈ 26.7 to 53.3 µM) | 16 to 32 µg/mL (≈ 26.7 to 53.3 µM) | 16 to 32 µg/mL (≈ 26.7 to 53.3 µM) | 16 to 32 µg/mL (≈ 26.7 to 53.3 µM) | 4 to 8 µg/mL (≈ 6.66 to 13.3 µM) | 16 to 32 µg/mL (≈ 26.7 to 53.3 µM) | 50 to 250 µM
CCN1CCN(C(=O)NC(C(=O)N[C@H]2Cc3cccc(C(=O)O)c3OB2O)c2ccc(P(=O)(O)O)c(F)c2O)C(=O)C1=O (stereo partly drawn) [Example 198, (3R)-3-(2-(4-ethyl-2,3-dioxopiperazine-1-carboxamido)-2-(3-fluoro-2-hydroxy-4-phosphonophenyl)acetamido)-2-hydroxy-3,4-dihydro-2H-benzo[e][1,2]oxaborinine-8-carboxylic acid] |  | 10 to 50 µM | < 1 µg/mL |  |  | < 1 µg/mL | 1 to 2 µg/mL (≈ 1.61 to 3.21 µM) | < 1 µg/mL | 4 to 8 µg/mL (≈ 6.43 to 12.9 µM) | < 1 µg/mL | < 1 µg/mL | 10 to 50 µM
O=C(NCCCN1CCN(C(=O)NC(C(=O)N[C@H]2Cc3ccc(F)c(C(=O)O)c3OB2O)c2cc(F)c(O)c(O)c2Cl)C(=O)C1=O)Nc1cccnc1 (stereo partly drawn) [Example 213, (3R)-3-(2-(2-chloro-5-fluoro-3,4-dihydroxyphenyl)-2-(2,3-dioxo-4-(3-(3-(pyridin-3-yl)ureido)propyl)piperazine-1-carboxamido)acetamido)-7-fluoro-2-hydroxy-3,4-dihydro-2H-benzo[e][1,2]oxaborinine-8-carboxylic acid] | < 1 µg/mL | < 10 µM | 16 to 32 µg/mL (≈ 21.1 to 42.1 µM) | 2 to 4 µg/mL (≈ 2.63 to 5.26 µM) | 8 to 16 µg/mL (≈ 10.5 to 21.1 µM) | 16 to 32 µg/mL (≈ 21.1 to 42.1 µM) | > 64 µg/mL | 16 to 32 µg/mL (≈ 21.1 to 42.1 µM) | > 64 µg/mL | 1 to 2 µg/mL (≈ 1.32 to 2.63 µM) | 16 to 32 µg/mL (≈ 21.1 to 42.1 µM) | 
O=C(NCCN1CCN(C(=O)NC(C(=O)N[C@H]2Cc3ccc(F)c(C(=O)O)c3OB2O)c2cc(F)c(O)c(O)c2Cl)C(=O)C1=O)c1ccccc1 (stereo partly drawn) [Example 207, (3R)-3-(2-(4-(2-benzamidoethyl)-2,3-dioxopiperazine-1-carboxamido)-2-(2-chloro-5-fluoro-3,4-dihydroxyphenyl)acetamido)-7-fluoro-2-hydroxy-3,4-dihydro-2H-benzo[e][1,2]oxaborinine-8-carboxylic acid] | 2 to 4 µg/mL (≈ 2.74 to 5.48 µM) | < 10 µM | 16 to 32 µg/mL (≈ 21.9 to 43.8 µM) | 2 to 4 µg/mL (≈ 2.74 to 5.48 µM) | 8 to 16 µg/mL (≈ 11 to 21.9 µM) | 16 to 32 µg/mL (≈ 21.9 to 43.8 µM) | 16 to 32 µg/mL (≈ 21.9 to 43.8 µM) | 16 to 32 µg/mL (≈ 21.9 to 43.8 µM) | > 64 µg/mL | 4 to 8 µg/mL (≈ 5.48 to 11 µM) | 16 to 32 µg/mL (≈ 21.9 to 43.8 µM) | 
O=C(CN1CCN(C(=O)NC(C(=O)N[C@H]2Cc3ccc(F)c(C(=O)O)c3OB2O)c2cc(F)c(O)c(O)c2Cl)C(=O)C1=O)NCc1ccc(O)cc1 (stereo partly drawn) [Example 236, (3R)-3-(2-(2-chloro-5-fluoro-3,4-dihydroxyphenyl)-2-(4-(2-((4-hydroxybenzyl)amino)-2-oxoethyl)-2,3-dioxopiperazine-1-carboxamido)acetamido)-7-fluoro-2-hydroxy-3,4-dihydro-2H-benzo[e][1,2]oxaborinine-8-carboxylic acid] |  | < 10 µM |  |  | 8 to 16 µg/mL (≈ 10.7 to 21.5 µM) |  |  |  |  |  |  | < 10 µM
